# Tests used:
# [1] = molecular target: respiratory chain complex II (Candida albicans, UniProt Q59QN7+Q5A1E8+Q5AJZ8+Q5ALU6); assay: Respiratory chain enzymatic activity, complex II, C. albicans; assay type: biochemical; settings: 10 mM malonic acid, read-out: Inhibition (%) of positive control, Complex II
# [2] = molecular target: respiratory chain complex II + III (Saccharomyces cerevisiae, UniProt P00163+P07143+P08067); assay: Respiratory chain enzymatic activity, complexes II plus III, S. cerevisiae; assay type: biochemical; settings: S. cerevisiae; 10 mM malonic acid, 10 μg/ml antimycin A; read-out: Inhibition (%) of positive control, Complex II+III
# [3] = molecular target: T1, respiratory chain complex II + III (Candida albicans, UniProt A0A1D8PHA3+A0A1D8PJX3+P0C8L0); assay: Respiratory chain enzymatic activity, complexes II plus III, C. albicans; assay type: biochemical; settings: C. albicans; 10 mM malonic acid, 10 μg/ml antimycin A; read-out: Inhibition (%) of positive control, Complex II+III
# T1 sequence (P0C8L0 1-387): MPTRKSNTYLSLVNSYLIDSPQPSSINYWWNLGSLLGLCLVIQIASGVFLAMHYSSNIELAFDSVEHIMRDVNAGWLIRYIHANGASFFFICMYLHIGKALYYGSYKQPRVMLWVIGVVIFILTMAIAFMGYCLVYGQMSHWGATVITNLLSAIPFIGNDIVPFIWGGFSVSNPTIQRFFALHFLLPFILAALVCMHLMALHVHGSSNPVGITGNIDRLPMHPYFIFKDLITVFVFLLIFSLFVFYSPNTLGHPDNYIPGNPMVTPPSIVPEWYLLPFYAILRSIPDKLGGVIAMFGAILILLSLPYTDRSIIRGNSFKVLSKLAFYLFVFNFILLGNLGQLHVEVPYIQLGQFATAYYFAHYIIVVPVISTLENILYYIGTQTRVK
# T1 sequence (A0A1D8PHA3 43-288): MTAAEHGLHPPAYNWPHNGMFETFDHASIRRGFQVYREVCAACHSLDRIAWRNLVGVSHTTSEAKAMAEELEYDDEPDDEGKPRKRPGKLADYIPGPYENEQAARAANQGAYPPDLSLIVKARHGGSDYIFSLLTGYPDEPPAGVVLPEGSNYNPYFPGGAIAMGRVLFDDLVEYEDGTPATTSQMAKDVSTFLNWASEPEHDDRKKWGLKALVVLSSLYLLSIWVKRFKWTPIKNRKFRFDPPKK
# T1 sequence (A0A1D8PJX3 30-213): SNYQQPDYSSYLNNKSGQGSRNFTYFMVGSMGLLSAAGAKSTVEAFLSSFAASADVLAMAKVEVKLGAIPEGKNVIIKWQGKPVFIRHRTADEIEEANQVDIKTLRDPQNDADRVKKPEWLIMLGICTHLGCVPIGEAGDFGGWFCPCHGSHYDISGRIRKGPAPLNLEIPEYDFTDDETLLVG
# [4] = molecular target: respiratory chain complex II (Saccharomyces cerevisiae, UniProt P21801+P33421+P37298+Q00711); assay: Respiratory chain enzymatic activity, complex II, S. cerevisiae; assay type: biochemical; settings: S. cerevisiae; 10 mM malonic acid; read-out: Inhibition (%) of positive control, Complex II
# respiratory chain complex II (Saccharomyces cerevisiae, UniProt P21801+P33421+P37298+Q00711), sequence (P21801 21-266): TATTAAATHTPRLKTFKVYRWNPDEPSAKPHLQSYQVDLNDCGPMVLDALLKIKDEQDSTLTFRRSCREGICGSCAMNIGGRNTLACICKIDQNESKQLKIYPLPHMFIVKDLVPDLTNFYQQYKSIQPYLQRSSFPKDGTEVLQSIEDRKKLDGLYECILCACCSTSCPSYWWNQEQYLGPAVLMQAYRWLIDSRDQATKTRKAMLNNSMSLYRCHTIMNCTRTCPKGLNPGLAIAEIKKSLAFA
# respiratory chain complex II (Saccharomyces cerevisiae, UniProt P21801+P33421+P37298+Q00711), sequence (P33421 51-198): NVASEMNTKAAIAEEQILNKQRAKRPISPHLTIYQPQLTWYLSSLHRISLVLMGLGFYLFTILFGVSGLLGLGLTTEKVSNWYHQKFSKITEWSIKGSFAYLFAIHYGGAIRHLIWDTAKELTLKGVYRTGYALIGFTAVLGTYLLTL
# respiratory chain complex II (Saccharomyces cerevisiae, UniProt P21801+P33421+P37298+Q00711), sequence (P37298 32-181): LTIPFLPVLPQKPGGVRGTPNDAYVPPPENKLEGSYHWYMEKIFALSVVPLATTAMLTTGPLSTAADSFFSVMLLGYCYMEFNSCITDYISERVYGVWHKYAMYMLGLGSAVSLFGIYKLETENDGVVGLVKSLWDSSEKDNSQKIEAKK
# respiratory chain complex II (Saccharomyces cerevisiae, UniProt P21801+P33421+P37298+Q00711), sequence (Q00711 29-640): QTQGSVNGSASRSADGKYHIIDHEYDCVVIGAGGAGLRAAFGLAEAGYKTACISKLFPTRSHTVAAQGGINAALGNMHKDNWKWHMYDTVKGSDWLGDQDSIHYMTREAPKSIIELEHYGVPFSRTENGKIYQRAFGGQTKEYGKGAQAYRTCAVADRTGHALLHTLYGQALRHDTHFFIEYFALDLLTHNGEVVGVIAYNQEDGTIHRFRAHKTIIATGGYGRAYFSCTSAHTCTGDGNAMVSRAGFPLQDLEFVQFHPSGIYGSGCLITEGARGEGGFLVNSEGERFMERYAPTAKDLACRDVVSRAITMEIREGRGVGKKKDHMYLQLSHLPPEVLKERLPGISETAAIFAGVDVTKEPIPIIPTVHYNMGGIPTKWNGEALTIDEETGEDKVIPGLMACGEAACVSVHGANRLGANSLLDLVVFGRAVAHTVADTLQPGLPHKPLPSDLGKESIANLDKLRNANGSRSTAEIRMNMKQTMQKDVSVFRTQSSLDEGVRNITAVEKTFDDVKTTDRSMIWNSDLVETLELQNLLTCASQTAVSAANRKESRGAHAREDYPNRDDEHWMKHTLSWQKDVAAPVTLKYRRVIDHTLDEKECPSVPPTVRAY
# [5] = tested on: complex III; settings: cited from earlier work
# [6] = tested on: whole yeast cells; assay: Oxygen consumption of whole yeast cells (oxygen electrode); assay type: cell-based, Saccharomyces cerevisiae; settings: T-2307 30, 100, 300, 1,000 μM; antimycin A 10 μg/ml; CCCP 4 μM; 23°C; 3 × 10^7 cells/ml
# [7] = tested on: NADH dehydrogenase; assay: NADH dehydrogenase activity, C. albicans; assay type: biochemical, Candida albicans; settings: C. albicans; 10 μM rotenone
# [8] = molecular target: respiratory chain complex I (Bos taurus, UniProt P03887+P17694+P42026); assay: MitoCheck complex I activity assay, bovine heart mitochondria; assay type: biochemical; settings: bovine heart; 2 μM rotenone; read-out: Inhibition (%) of positive control, complex I
# Description: The enzymatic activities of bovine heart mitochondrial respiratory chain complexes were determined using MitoCheck complex I, complex II/III, and complex IV activity assay kits (Cayman Chemical, Ann Arbor, MI, USA). Bovine heart mitochondria from these kits were used for experiments. The experiments were performed following the manufacturer’s instructions. In the experiments, 2 μM rotenone, 1 mM KCN, and both 1 mM TTFA and 5 μg/ml antimycin A served as positive controls for the inhibition of complex I, complex IV, and complexes II plus III, respectively.
# In all experiments, the reaction rate of each enzyme was determined by calculating the slope of the linear portion of the curve. Complex I activity in C. albicans was calculated by subtracting the rotenone-insensitive enzymatic activity (with 10 μM rotenone) from the NADH dehydrogenase activity (without rotenone).
# OCRs in isolated mitochondria and intracellular ATP levels were compared between the control and treatment groups using the parametric Dunnett’s multiple-comparison test. P values of <0.05 (comparison of multiple groups) were considered statistically significant. IC50 values were determined from dose-response curves compared with untreated control samples using a four-parameter logistic curve-fitting analysis. Data were analyzed using JMP 13.0 (SAS Institute Japan Ltd., Tokyo, Japan).
# [9] = tested on: isolated yeast mitochondria; assay: Mitochondrial oxygen consumption (MitoXpress probe); assay type: biochemical, Saccharomyces cerevisiae
# Description: S. cerevisiae from frozen stock (−80°C) was inoculated into yeast extract-peptone-glucose (YPD) medium (1% yeast extract, 2% peptone, and 2% glucose) and grown for 24 h at 30°C. The cultured cells were subcultured into yeast extract-peptone-galactose (YPGal) medium (1% yeast extract, 2% peptone, 2% galactose, and 0.1% glucose) and incubated overnight with continuous shaking at 30°C. When the optical density at 600 nm reached approximately 1.0, the cells were collected by centrifugation (3,000 × g at room temperature for 5 min). Intact mitochondria were isolated as per a previously described protocol ([35]) with minor modifications as follows. Yeast cells were converted to spheroplasts by incubation with Zymolyase-20T (Nacalai Tesque, Inc., Kyoto, Japan) (4 mg of Zymolyase-20T/g [wet weight] of cells) and disrupted using a Dounce homogenizer. The crude mitochondrial fraction was isolated by differential centrifugation ([35]). […]. The mitochondrial protein concentration was determined using the DC protein assay (Bio-Rad Laboratories, Inc., Hercules, CA, USA) following the manufacturer’s instructions. The mitochondrial stock solution was maintained on ice during the oxygen consumption experiment.
# The mitochondrial oxygen consumption was measured using a phosphorescent oxygen-sensitive probe, MitoXpress-Xtra (Agilent Technologies, Santa Clara, CA, USA), as described previously ([16], [36]). Succinate was used as a respiratory substrate in this assay. […] A microplate reader, PHERAstar Plus (BMG Labtech GmbH, Ortenberg, Germany), was used to read. The time-resolved fluorescence protocol was set to read the plate at 1.5-min intervals for 60 min at an excitation wavelength of 337 nm, an emission wavelength of 665 nm, a delay time of 40 μs, and a gate time of 100 μs at 30°C.
# […]. […] For quantitative assessment, OCR was determined from the slope of the initial 7.5 min. OCR is expressed as micromolar of O2 per minute per milligram of protein.
# The drug concentration was expressed as micromoles per milligram of protein. […]
# [10] = tested on: Saccharomyces cerevisiae; assay: Intracellular ATP levels in yeast (luminescence assay); assay type: cell-based; settings: 8 h exposure at 30°C, semisynthetic medium; antimycin A 0.5 μg/ml
# Description: Intracellular ATP levels were measured using a previously described method with the following modifications ([25]). S. cerevisiae was grown overnight in a semisynthetic medium (per liter: 20 g of lactate, 0.5 g of glucose, 3 g of yeast extract, 1 g of KH2PO4, 1 g of NH4Cl, 0.5 g of CaCl2·2H2O, 0.5 g of NaCl, and 0.6 g of MgCl2·6H2O; adjusted to pH 5.5 with NaOH). The cells were harvested during the logarithmic-growth phase by centrifugation (3,000 × g at room temperature for 5 min). They were then washed and resuspended in distilled water. The suspension was diluted in a semisynthetic medium to yield 1 × 10^6 cells/ml. After 5 min of incubation at 30°C, T-2307 and antimycin A were added to the suspension. Further, the cells were incubated for 8 h at 30°C. Subsequently, the cells were collected by centrifugation (4,200 × g at 4°C for 5 min). After washes performed with phosphate-buffered saline (PBS; pH 7.2), the cells were resuspended in PBS and diluted to yield 1 × 10^6 cells/ml. ATP levels were measured using the BacTiter-Glo microbial cell viability assay (Promega, Madison, WI, USA), following the manufacturer’s instructions. Luminescence was measured using a microplate reader POLARstar Optima (BMG Labtech GmbH). To determine the viable cell counts, the cell suspension was diluted with PBS and spread on YPD agar. After a 2-day incubation at 30°C, colonies were counted. The intracellular ATP level is expressed as relative light units (RLU)/CFU.
# [11] = molecular target: respiratory chain complex II + III (Bos taurus, UniProt P00125+P00157+P13272); assay: MitoCheck complex II/III activity assay, bovine heart mitochondria; assay type: biochemical; settings: bovine heart; 1 mM TTFA, 5 μg/ml antimycin A; read-out: Inhibition (%) of positive control, Complex II+III
# respiratory chain complex II (Candida albicans, UniProt Q59QN7+Q5A1E8+Q5AJZ8+Q5ALU6), sequence (Q5A1E8 26-641): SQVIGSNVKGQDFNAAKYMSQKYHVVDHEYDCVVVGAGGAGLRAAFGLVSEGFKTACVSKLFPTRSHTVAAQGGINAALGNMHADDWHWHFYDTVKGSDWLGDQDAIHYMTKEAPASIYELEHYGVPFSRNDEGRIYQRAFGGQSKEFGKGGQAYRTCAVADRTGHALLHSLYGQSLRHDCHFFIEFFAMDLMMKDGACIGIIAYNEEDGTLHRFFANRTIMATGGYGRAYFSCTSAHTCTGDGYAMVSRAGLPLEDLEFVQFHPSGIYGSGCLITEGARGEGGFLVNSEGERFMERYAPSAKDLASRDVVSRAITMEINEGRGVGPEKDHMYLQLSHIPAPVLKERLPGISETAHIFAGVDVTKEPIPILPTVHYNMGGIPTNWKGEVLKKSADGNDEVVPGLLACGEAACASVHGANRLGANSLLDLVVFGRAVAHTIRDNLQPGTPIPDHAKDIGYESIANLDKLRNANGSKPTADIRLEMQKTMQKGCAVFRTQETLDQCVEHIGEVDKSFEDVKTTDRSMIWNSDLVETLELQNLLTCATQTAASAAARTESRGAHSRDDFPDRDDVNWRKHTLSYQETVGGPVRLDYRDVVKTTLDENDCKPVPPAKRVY
# respiratory chain complex II (Candida albicans, UniProt Q59QN7+Q5A1E8+Q5AJZ8+Q5ALU6), sequence (Q59QN7 20-263): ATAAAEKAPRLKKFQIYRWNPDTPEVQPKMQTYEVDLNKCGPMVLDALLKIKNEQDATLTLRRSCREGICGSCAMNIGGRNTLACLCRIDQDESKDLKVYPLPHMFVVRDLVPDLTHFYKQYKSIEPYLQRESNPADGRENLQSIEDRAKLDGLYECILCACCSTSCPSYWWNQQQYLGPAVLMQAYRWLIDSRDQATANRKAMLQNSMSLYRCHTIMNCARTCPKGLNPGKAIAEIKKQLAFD
# respiratory chain complex II (Candida albicans, UniProt Q59QN7+Q5A1E8+Q5AJZ8+Q5ALU6), sequence (Q5ALU6 32-176): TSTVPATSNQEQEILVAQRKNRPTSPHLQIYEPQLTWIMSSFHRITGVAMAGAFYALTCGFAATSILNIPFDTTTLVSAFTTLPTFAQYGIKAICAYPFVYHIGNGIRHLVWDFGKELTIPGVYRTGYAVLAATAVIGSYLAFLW
# respiratory chain complex II (Candida albicans, UniProt Q59QN7+Q5A1E8+Q5AJZ8+Q5ALU6), sequence (Q5AJZ8 28-164): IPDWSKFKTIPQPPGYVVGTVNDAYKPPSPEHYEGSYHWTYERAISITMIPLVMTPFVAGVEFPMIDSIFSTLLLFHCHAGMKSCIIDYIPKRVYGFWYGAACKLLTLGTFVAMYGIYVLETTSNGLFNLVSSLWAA
compound,measurement,setting,value
O=C(O)CC(=O)O [Malonic acid],inhibition at 10000 µM,[1],100%
same,inhibition at 10000 µM,[2],97%
same,inhibition at 10000 µM,[3],98%
same,inhibition at 10000 µM,[4],100%
C/C=C/[C@@H]1[C@H]2C[C@@H](C)CC[C@@H]2C(C)=C[C@H]1C(=O)c1c(O)c(-c2ccc(O)cc2)c[nH]c1=O [ilicicolin H],selectivity between yeast and bovine complex III,[5],> 70 fold
"N#CC(C#N)=NNc1cccc(Cl)c1 [CCCP, carbonyl cyanide m-chlorophenylhydrazone]",effect on oxygen consumption in whole yeast cells,[6],stimulated oxygen consumption
"C=C(C)[C@H]1Cc2c(ccc3c2O[C@@H]2COc4cc(OC)c(OC)cc4[C@@H]2C3=O)O1 [Rotenone, rotenone, reference compound]","Inhibition (%) of positive control, NADH dehydrogenase (including Complex I)",[7],59%
same,inhibition at 2 µM,[8],68%
Oligomycin A,effect on mitochondrial oxygen consumption rate (OCR),[9]; ADP-stimulated condition (succinate + ADP),significantly inhibited
same,effect on mitochondrial oxygen consumption rate (OCR),"[9]; basal condition (succinate, absence of ADP)",did not decrease the OCR
CCCCCC[C@H]1C(=O)O[C@H](C)[C@H](NC(=O)c2cccc(NC=O)c2O)C(=O)O[C@@H](C)[C@@H]1OC(=O)CC(C)C [Antimycin A],effect on intracellular ATP level,[10],significantly decreased
same,inhibition at 10 µg/mL,[2],97%
same,inhibition at 10 µg/mL,[3],98%
same,inhibition at 5 µg/mL,[11],92%
same,effect on oxygen consumption in whole yeast cells,[6],completely and immediately inhibited respiration
"O=C(CC(=O)C(F)(F)F)c1cccs1 [TTFA, 2-thenoyltrifluoroacetone, reference compound]",inhibition at 1000 µM,[11],86%

# Source: publication PMC6658782, “The Novel Arylamidine T-2307 Selectively Disrupts Yeast Mitochondrial Function by Inhibiting Respiratory Chain Complexes” (Antimicrobial Agents and Chemotherapy, 2019)
